Reference: ChEMBL document CHEMBL1130841, “Evaluation of phosphorus-containing inhibitors of gamma-glutamyl hydrolase” (Bioorg Med Chem Lett, 1998)

How the values were obtained:
[1] = biological target: T1, Gamma-glutamyl hydrolase (Homo sapiens, UniProt Q92820); assay: Compound was tested for inhibitory potency against gamma-Glutamyl Hydrolase.
T1 sequence (Q92820 whole entry): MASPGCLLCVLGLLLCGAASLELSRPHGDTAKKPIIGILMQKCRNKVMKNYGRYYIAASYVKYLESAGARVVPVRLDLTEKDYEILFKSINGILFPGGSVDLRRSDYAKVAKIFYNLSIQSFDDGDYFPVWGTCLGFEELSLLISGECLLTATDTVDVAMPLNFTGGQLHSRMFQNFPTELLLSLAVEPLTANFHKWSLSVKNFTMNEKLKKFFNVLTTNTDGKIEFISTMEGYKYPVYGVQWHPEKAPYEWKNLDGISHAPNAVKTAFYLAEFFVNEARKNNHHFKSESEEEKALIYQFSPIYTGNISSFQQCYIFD

[2] = Phosphorylation rate constant was evaluated.; type: ADME
[3] = Dissociation constant was evaluated.; type: physicochemical

Compound O=C(O)CC[C@H](NP(=O)(O)c1ccccc1)C(=O)O has a Ki [1] of 0.95 nM.

With COP(=O)(N[C@@H](CCC(=O)O)C(=O)O)OC the Ki [1] was 10.9 M⁻¹, the kp [2] was 2.42 min⁻¹ and the Kd [3] was 0.223 M⁻¹.

Compound COP(=O)(N[C@@H](CCC(=O)O)C(=O)O)c1ccccc1 (some centres not stated) has a Ki [1] of 0.264 M⁻¹, a kp [2] of 7.24 min⁻¹ and a Kd [3] of 27.4 M⁻¹.
